Reference: ChEMBL document CHEMBL5143516, “Design, synthesis, and biological evaluation of N-(3-cyano-1H-indol-5/6-yl)-6-oxo-1,6-dihydropyrimidine-4-carboxamides and 5-(6-oxo-1,6-dihydropyrimidin-2-yl)-1H-indole-3-carbonitriles as novel xanthine oxidase inhibitors” (Eur J Med Chem, 2022)
Calls of active or inactive are those of the source. No cut-off for these calls is given here.

Key:
[1] = target: Xanthine dehydrogenase/oxidase (Homo sapiens, UniProt P47989); assay: Inhibition of xanthine oxidase (unknown origin) using xanthine as substrate incubated for 15 mins followed by substrate addition by spectrophotometric analysis
Rattus norvegicus = assay: Anti-hyperuricemic activity against potassium oxonate-induced acute hyperuricemia Sprague-Dawley rat model assessed as reduction in serum uric acid level at 10 mg/kg, po pretreated with potassium oxonate for 1 hr followed by compound treatment and measured after 8 hrs; assay type: functional, organism-based

Sequence of Xanthine dehydrogenase/oxidase (P47989 whole entry): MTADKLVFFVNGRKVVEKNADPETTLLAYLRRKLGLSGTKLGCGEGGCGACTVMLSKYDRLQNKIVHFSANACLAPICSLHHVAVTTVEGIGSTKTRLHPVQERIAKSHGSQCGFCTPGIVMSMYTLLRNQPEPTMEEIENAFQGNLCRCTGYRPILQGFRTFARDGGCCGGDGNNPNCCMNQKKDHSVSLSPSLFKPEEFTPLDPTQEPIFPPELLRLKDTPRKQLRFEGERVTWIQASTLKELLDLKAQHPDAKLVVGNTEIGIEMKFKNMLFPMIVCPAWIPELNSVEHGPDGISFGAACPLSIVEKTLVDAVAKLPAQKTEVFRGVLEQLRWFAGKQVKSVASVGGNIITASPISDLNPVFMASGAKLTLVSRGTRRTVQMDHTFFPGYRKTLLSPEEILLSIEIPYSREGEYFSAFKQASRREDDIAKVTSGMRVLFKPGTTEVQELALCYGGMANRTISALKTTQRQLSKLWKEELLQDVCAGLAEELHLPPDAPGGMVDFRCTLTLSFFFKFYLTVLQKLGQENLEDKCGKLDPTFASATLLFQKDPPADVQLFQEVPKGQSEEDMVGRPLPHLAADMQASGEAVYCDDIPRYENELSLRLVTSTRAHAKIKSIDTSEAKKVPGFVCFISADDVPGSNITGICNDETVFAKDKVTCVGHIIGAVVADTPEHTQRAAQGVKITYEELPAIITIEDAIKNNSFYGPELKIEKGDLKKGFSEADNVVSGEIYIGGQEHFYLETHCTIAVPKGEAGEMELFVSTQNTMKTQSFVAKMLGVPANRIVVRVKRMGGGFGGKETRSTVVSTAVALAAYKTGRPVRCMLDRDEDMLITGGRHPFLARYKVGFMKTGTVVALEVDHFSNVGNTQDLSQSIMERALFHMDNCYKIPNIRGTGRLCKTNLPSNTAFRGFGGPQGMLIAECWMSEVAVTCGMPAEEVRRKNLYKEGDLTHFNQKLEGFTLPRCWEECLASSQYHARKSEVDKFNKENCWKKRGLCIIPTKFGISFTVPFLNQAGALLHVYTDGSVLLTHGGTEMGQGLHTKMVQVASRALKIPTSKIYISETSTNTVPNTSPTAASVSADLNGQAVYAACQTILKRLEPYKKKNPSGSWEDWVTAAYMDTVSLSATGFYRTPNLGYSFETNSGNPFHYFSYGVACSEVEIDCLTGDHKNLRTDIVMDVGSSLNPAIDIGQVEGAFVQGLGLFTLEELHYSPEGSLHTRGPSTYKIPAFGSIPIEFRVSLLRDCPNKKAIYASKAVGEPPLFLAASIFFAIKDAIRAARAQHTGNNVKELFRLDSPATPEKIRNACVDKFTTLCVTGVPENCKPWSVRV

Row | SMILES | IC50 [1] | Activity (Rattus norvegicus)
1 | Oc1ncnc2[nH]ncc12 | – | Active
2 | Cc1nc(C(=O)Nc2ccc3c(C#N)cn(C4CCCC4)c3c2)cc(=O)[nH]1 | > 10 µM | –
3 | CC(C)n1cc(C#N)c2cc(-c3nccc(O)n3)ccc21 | – | Active
4 | C=CCn1cc(C#N)c2ccc(NC(=O)c3cc(=O)[nH]cn3)cc21 | > 10 µM | –
5 | N#Cc1cn(C2CCCC2)c2ccc(NC(=O)c3cc(=O)[nH]cn3)cc12 | – | Active
6 | COc1ccnc(-c2ccc3c(c2)c(C#N)cn3C(C)C)n1 | > 10 µM | –
7 | CC(C)=CCn1cc(C#N)c2ccc(NC(=O)c3cc(=O)[nH]cn3)cc21 | > 10 µM | –
8 | CC(C)n1cc(C#N)c2ccc(NC(=O)c3cc(=O)[nH]cn3)cc21 | > 10 µM | –

Second part, led by results:

Row | IC50 [1] | SMILES | Activity (Rattus norvegicus)
9 | > 10 µM | CC(C)Cn1cc(C#N)c2ccc(NC(=O)c3cc(=O)[nH]cn3)cc21 | –
10 | > 10 µM | CC(C)(C)c1ccc(Cn2cc(C#N)c3cc(NC(=O)c4cc(=O)[nH]cn4)ccc32)cc1 | –
11 | > 10 µM | N#Cc1cn(CC2CC2)c2cc(NC(=O)c3cc(=O)[nH]cn3)ccc12 | –
12 | > 10 µM | N#Cc1cn(C2CCCC2)c2cc(NC(=O)c3cc(=O)[nH]cn3)ccc12 | –
13 | 0.023 µM | Cc1nc(-c2ccc(OCC(C)C)c(C#N)c2)sc1C(=O)O [FEBUXOSTAT] | Active
